The values below come from patent US10759831B2, “Peptide compound, production method therefor, and use thereof” (iNtRON Biotechnology, Inc., priority 2014, dated 2020).

pIC50: −log10 of the molar value.

The test system of data set [1] is liver cancer cell line SK-HEP-1. Description: SRB cell viability assay, liver cancer cell line SK-HEP-1. It is filed as cell-based. Particulars: Homo sapiens, SK-HEP1; SK-HEP-1, 72 hours; read-out: Cell growth inhibition concentration (IC50). The procedure: Regarding a lung cancer cell line A549 (Korean Cell line Bank), a colon cancer cell line HCT116 (ATCC), a stomach cancer cell line SNU638 (Korean Cell Line Bank), a liver cancer cell line SK-HEP-1 (Korean Cell line Bank), and a breast cancer cell line MDA-MB-231 (Korean Cell line Bank), a sulforhodamine B (SRB) assay which is a method of measuring cell viability was used for measuring apoptosis effects of Asperphenin.
(§1) In detail, 190 μl of a cell suspension at a concentration of 3.5×10^4 cells/ml was inoculated in each well of a 96-well microplate. 0.8 μM, 4 μM, 20 μM, or 100 μM of Asperphenin was added to the cell culture medium, and cultured at a temperature of 37° C. for 72 hours under the condition of 5% CO2. After incubation, 50 μl of 50% (v/v) trichloroacetic acid solution (Sigma Aldrich) was added to each well, and then, incubated at a temperature of 4° C. for 30 minutes, to thereby fix the cells thereto. The fixed cells were washed with water five times, and then, dried in the air.
Next, 80 μl of a 0.4% (w/v) SRB aqueous solution (Sigma Aldrich) containing 1% (v/v) acetic acid (DUKSAN) was added to each well, incubated at room temperature for 1 hour to stain cells therein, and the stained cells washed with water and dried. The cells were dissolved by adding 200 μl of 10 mM Tris (pH 10.0) (Sigma Aldrich) to each well, and then, the number of living cells was calculated by measuring the absorbance thereof at 515 nm. The concentration of the compound inhibiting cell growth to 50% based on the number of the living cells, i.e., 50% inhibition concentration (IC50) was calculated, and the results are shown in Table 3. Here, as a positive control, etoposide (Sigma Aldrich) was used.

A short description of data set [2]: Physicochemical characterization.
Data set [3] concerns colon cancer cell line HCT15. Description: SRB cell viability assay, colon cancer cell line HCT15. It is filed as cell-based. As to conditions: Homo sapiens, HCT-15, read-out: Growth inhibition value of cancer cell (IC50). How it is done:
as §1
(§2) Next, 80 μl of a 0.4% (w/v) SRB aqueous solution (Sigma Aldrich) containing 1% (v/v) acetic acid (DUKSAN) was added to each well, incubated at room temperature for 1 hour to stain cells therein, and the stained cells washed with water and dried. The cells were dissolved by adding 200 μl of 10 mM Tris (pH 10.0) (Sigma Aldrich) to each well, and then, the number of living cells was calculated by measuring the absorbance thereof at 515 nm. […]
(§3) From the colon cancer cell lines HCT116 (ATCC), HCT15 (Korean Cell Line Bank), LS174T (Korean Cell Line Bank), RKO(ATCC), and SW480(ATCC), cell growth inhibition concentrations (IC50, μM) were calculated as described in Example 2-1, and the results are shown in Table 4. […]

The subject of the next data set is RKO cells. In words: Tumor xenograft mouse model, RKO human colon cancer cell line. It is filed as in vivo. Particulars: nude mouse; for Tumor growth inhibition ratio: 21 days. The procedure:
The anticancer effect of […] was verified in a tumor xenograft mouse model to which human colon cancer cell line was transplanted. In detail, RKO cells were subcutaneously injected at a concentration of 3.5×10^6 cells/150 μl into the right side of a nude mouse (Central Lab. Aminol Inc., hairless and small mouse that was tymus free and had dried beard at birth). […] The tumor size was measured by using a digital caliper for 21 days at intervals of 3 to 4 days. Here, as a control, a nude mouse to which […] was not administered was used (n=5).
In general terms: Xenograft models place foreign cells or tissue in a host animal.

Data set [4] concerns apoptosis-related proteins in RKO cells. In words: Immunoblotting of apoptosis-related proteins. Type of data set: cell-based, human. How it is done:
As described in Example 2-3, cells were obtained in a way that Asperphenin B at the concentration of 0.625 μM, 1.25 μM, 2.5 μM, 5 μM, or 10 μM was added to the RKO cells, and then, cultured for 48 hours. However, cells were obtained in a way that Asperphenin B at the concentration of 5 μM was added to the RKO cells, and then, cultured for 0 to 48 hours. Then, proteins were obtained from the obtained cells.
Also, regarding the expression of apoptosis-related proteins, anti-ATM antibody (Cell Signaling Technology), anti-p-Chk (Thr68) antibody (Cell Signaling Technology), anti-Chk antibody (Cell Signaling Technology), anti-p-H2AX antibody (Cell Signaling Technology), anti-p53 antibody (Santa Cruz), anti-Bax antibody (Santa Cruz), anti-BID antibody (Cell Signaling Technology), anti-Caspase-8 antibody (Cell Signaling Technology), anti-Caspase-3 antibody (Cell Signaling Technology), anti-Caspase-9 antibody (Cell Signaling Technology), anti-cleaved PARP antibody (BD Biosciences), and anti-β-actin antibody (Santa Cruz) were used, to thereby perform immunoblotting.
For orientation: In western blotting, separated proteins are transferred to a membrane and probed.

The test system of data set [5] is colon cancer cell line SW480. Description: SRB cell viability assay, colon cancer cell line SW480. It is filed as cell-based. As to conditions: Homo sapiens, read-out: Growth inhibition value of cancer cell (IC50). The procedure:
as §1, §2, §3

The subject of data set [6] is colon cancer cell line RKO. Description: SRB cell viability assay, colon cancer cell line RKO. As to conditions: Homo sapiens, read-out: Growth inhibition value of cancer cell (IC50). It is filed as cell-based. The procedure:
as §1, §2, §3

With `CCCCCCCCC[C@@H](O)CC(=O)N[C@@H](CC(N)=O)C(=O)N[C@@H](CCC(N)=O)C(=O)N[C@H](CC(=O)c1cc(C)cc(O)c1C(=O)c1c(O)cccc1O)CC(C)C` [Asperphenin B], the pIC50 in data set [1] was 5.52. Besides, in data set [2], the “Solubility in organic solvent” value was “well dissolved in a moderate organic solvent, such as methanol and acetone”; the Stability entry is given as “stable at room temperature”. For the same compound, the pIC50 in data set [3] was 5.14. Also, in the data set on RKO cells (4 mg/kg intraperitoneally 3 times a week), the “Tumor growth inhibition ratio” value turned out to be 38.9%. The “Inhibition of tumor growth” value with RKO cells (4 mg/kg or 8 mg/kg) was “observed in a compound concentration-dependent manner”. In addition, the “Tumor growth inhibition ratio” value with RKO cells (8 mg/kg intraperitoneally 3 times a week) is listed as 68.7%. For the same compound, in data set [4] (5 μM, 0 to 48 hours, FIG. 6B), the “Expression of p53 and Bax” value is on record as “increased in a time-dependent manner”. The “Expression of p-Chk2 (Thr68), p-H2AX (Ser139), cleaved caspase-8, cleaved caspase-9, cleaved caspase-3, and PARP” value in data set [4] (5 μM, 48 hours, FIG. 6B) is given as “increased”. Further, in data set [4] (48 hours, 0.625-10 μM, FIG. 6A), the “Expression of ATM protein” value was “increased in a concentration-dependent manner” and the “Expression of p53 protein” value is on record as “increased in a concentration-dependent manner”. In addition, in data set [4] (48 hours, FIG. 6A), the “Chk2 and H2AX, sub-regulatory factors of ATM” value is “phosphorylated to be activated”; the “Cleavage of Bid, caspase-8, caspase-9, caspase-3 and PARP” value was “induced”; the “Expression of Bax” value was “increased expression”. The pIC50 in data set [5] was 4.50. The pIC50 in data set [6] is 5.93.
